This is an account of results in patent publication US7501424B2, “N-phenyl-2-pyrimidine-amine derivatives and process for the preparation thereof” (Il-Yang Pharm. Co., Ltd., priority 2005, dated 2009).

One may read the IC50 as the concentration that inhibits the measured activity by half. One may read the LD50 as the dose at which mortality reaches 50%. The low end stands for a more toxic substance, the high end for a less toxic substance. As a reminder, the AUC is the area under the concentration-time curve, a measure of exposure. Lower therefore signals less exposure. As a reminder, the Cmax is the highest concentration seen after dosing. One may read the Tmax as the time from dosing to the highest level.

One data set deals with K562 cancer cell. The data set is described as follows: Growth inhibition of K562 cancer cell (MTT). Format: cell-based. As to conditions: for IC50: Homo sapiens, K562, 48 h, K562, MTT, 2 days; for improved activity compared with Imatinib mesylate: K562. The protocol: (§1) In the present experiment, the inhibitory activity of the compound of formula (1) was determined against the growth of K562 cancer cell. First, the cells were allowed to stand in RPMI (Roswell Park Memorial Institute)-1640 medium containing 10% (v/v) fetal bovine serum in an incubator of 37° C. and 5% by volume of CO2. The cancer cells (1000 cells) were transferred to a 96-well plate, and the test compound was diluted. The plate was allowed to stand under the above mentioned conditions for 2 days. After this treatment, to the cells was added 0.2% MTT (3-[4,5-dimethylthiazol-2-yl]-2,5-diphenyltetrazolium bromide) solution, and the resulting mixture was allowed to stand under the constant temperature-condition for 4 hours. The supernatant was removed to leave the resulting crystal. DMSO was added to dissolve the crystal, and the absorbance of the solution was measured at 540 nm. IC50 value was calculated using a computer system according to the following formula: (OD540(test)−OD540(blank)/OD540(control)−OD540(blank))×100

A further data set concerns CT-26 cancer cell. The data set is described as follows: Growth inhibition of CT-26 cancer cell (MTT). Format: cell-based. As to conditions: for improved activity compared with Imatinib mesylate: CT-26; for IC50: Mus musculus, CT26, 48 h, CT-26, MTT, 2 days, read-out: IC50. The protocol:
as §1
In the present experiment, the inhibitory activity of the compounds of formula (1) was determined against the growth of CT-26 cancer cell. The test was performed according to the same procedure as Experiment 1.

For a further data set, the system named is A549. The data set is described as follows: Growth inhibition of lung cancer cell A549 (MTT). As to conditions: for IC50: Homo sapiens, A549, Experiment 3, read-out: IC50. Format: cell-based. The protocol: as §1
(§2) The test was performed according to the same procedure as Experiment 1.
as §2

For a further data set, the system named is Panc-1. Put plainly: Growth inhibition of pancreatic cancer cell Panc-1 (MTT). It is filed as cell-based. As to conditions: Homo sapiens; Panc-1, Experiment 3. The protocol:
as §1, §2

The next data set has as its system A-172. The data set is described as follows: Growth inhibition of encephalophyma cell A-172 (MTT). It is filed as cell-based. As to conditions: Homo sapiens; A-172, Experiment 3. The protocol: as §1, §2
The next data set concerns RPMI-6666. Put plainly: Growth inhibition of lymphoma cell RPMI-6666 (MTT). It is filed as cell-based. As to conditions: Homo sapiens; RPMI-6666, Experiment 3. The protocol:
as §1, §2

Another data set has as its system HT-1197. The data set is described as follows: Growth inhibition of bladder cancer cell HT-1197 (MTT). As to conditions: Homo sapiens, HT1197; HT-1197, Experiment 3. It is filed as cell-based. The protocol: as §1, §2
A further data set has as its system SNU-C1. The data set is described as follows: Growth inhibition of colon cancer cell SNU-C1 (MTT). Format: cell-based. As to conditions: Homo sapiens; SNU-C1, Experiment 3. As for the experimental part: as §1, §2
For a further data set, the system named is SNU-1. Put plainly: Growth inhibition of gastric cancer cell SNU-1 (MTT). Format: cell-based. As to conditions: for IC50: Homo sapiens, read-out: IC50. The protocol:
as §1, §2, §2

The nature of data set [1]: Acute toxicity test in mice (oral administration). It is filed as in vivo. As to conditions: both sexes, ICR, mouse, in vivo, po. The protocol: (§3) In order to determine the acute toxicity of the compound of the present invention when the compound is orally administered, mice (ICR, 24˜26 g) were fasted for 16 hours. One group consists of 10 males and 10 females. The first group is the control group and 0.5% sodium carboxymethyl cellulose (CMC) was administered per oral to this group. The compounds of Examples 5 and 8 were orally administered in a dosage of 2,000 mg/kg, the maximum dosage in acute toxicity test, to each test group. […] On the last day of the test, 14th day from the start, the mice were subjected to an autopsy in order to examine changes of the internal organs. […] Further, since no mouse died during the test period, it was confirmed that the compounds of Examples 5 and 8 have LD50 of 2,000 mg/kg or more. This means that the compounds of the present invention including those of Examples 5 and 8 are safe in the aspect of acute toxicity.

The next data set concerns mice (ICR). The data set is described as follows: Acute toxicity test in mice (oral administration). It is filed as in vivo. As to conditions: mice (ICR), oral 2,000 mg/kg, 14 days. As for the experimental part:
as §3

Data set [2] can be described thus: Acute toxicity test in rat (oral administration). It is filed as in vivo. As to conditions: both sexes, SD, rat, in vivo, po. As for the experimental part: (§4) In this test, the acute toxicity of the compound of the present invention when the compound is […] was determined on rat (SD-Rat, 100˜110 g). One group consists of 5 males and 5 females. The first group is the control group and 0.5% CMC was intravenously administered to this group. The compounds of Examples 5 and 8 were orally administered in a dosage of 1,000, 2,000 mg/kg, respectively, to each test group. […] On the last day of the test, 14th day from the start, the rat were subjected to an autopsy in order to examine changes of the internal organs. […] Further, since no […] died during the test period, it was confirmed that the compounds of Examples 5 and 8 have LD50 of 2,000 mg/kg or more. This means that the compounds of the present invention including those of Examples 5 and 8 are safe in the aspect of acute toxicity.

The next data set concerns rat (SD-Rat). Put plainly: Acute toxicity test in rat (oral administration). Format: in vivo. As to conditions: SD-Rat, orally 1,000, 2,000 mg/kg, 14 days. The protocol:
as §4

Data set [3] is described as follows: Comparative pharmacokinetic test in white rats.
The next data set deals with Sarcoma-180. Put plainly: Growth inhibition of Sarcoma-180 (MTT). Format: cell-based. The protocol:
as §1, §2

The subject of the next data set is KB. Put plainly: Growth inhibition of oral epithelial cancer cell KB (MTT). Format: cell-based. The protocol:
as §1, §2

A further data set concerns SK-OV-03. Put plainly: Growth inhibition of ovarian cancer cell SK-OV-03 (MTT). It is filed as cell-based. As for the experimental part: as §1, §2
A short description of the next data set: in vivo. As to conditions: male, Sprague-Dawley, rat, po, 100 mg/kg.
[4] abbreviates: male, Sprague-Dawley, rat, plasma, po, 100 mg/kg.

≈ marks a conversion by molar mass, not a printed value. Like-named read-outs stand apart in the source and are kept apart here.

Regarding `Cc1cn(-c2cc(NC(=O)c3ccc(C)c(Nc4nccc(-c5nccs5)n4)c3)cc(C(F)(F)F)c2)cn1` [Example 5, 4-methyl-N-[3-(4-methylimidazol-1-yl)-5-trifluoromethyl-phenyl]-3-(4-thiazol-2-yl-pyrimidin-2-ylamino)-benzamide], the IC50 in the data set with K562 cancer cell was at most 0.01 µg/mL; with CT-26 cancer cell it was 0.06 µg/mL (≈ 0.112 µM); in the data set with A549, 0.082 µg/mL (≈ 0.153 µM); in the data set with Panc-1, 7.1 µg/mL (≈ 13.3 µM); in the data set with A-172, under 0.01 µg/mL; with RPMI-6666, under 0.01 µg/mL. Besides, the IC50 with HT-1197 was 0.063 µg/mL (≈ 0.118 µM); in the data set with SNU-C1 it was under 0.01 µg/mL; in the data set on SNU-1 (SNU1, SNU-1, Experiment 3), under 0.01 µg/mL. The “improved activity compared with Imatinib mesylate” value came to 50 times in the data set with K562 cancer cell and 300 times with CT-26 cancer cell. The median lethal dose (LD50) at 14 days in [1] and in data set [2] was at least 2000 mg/kg in each case. Also, the “clinical conditions and autopsy” value in the data set on mice (ICR) and in the data set on rat (SD-Rat) was “neither abnormal response nor specific autopsy result was observed” in each case. The same compound registered an AUC in [3] (setting [4]) of 114000 ng·h/mL. In data set [3] (setting [4]), this compound showed a Cmax of 8270 ng/mL. Moreover, the Tmax in [3] (setting [4]) came to 11.2 h. Besides, in data set [3] (white rats, 100 mg/kg per oral), the “AUC as much as that of Imatinib mesylate” value is recorded as about 5 times. Moreover, the “Cmax as much as that of Imatinib mesylate” value in data set [3] (white rats, 100 mg/kg per oral) is “about 4 times”.

As to `Cc1cn(-c2cc(NC(=O)c3ccc(C)c(Nc4nccc(-c5cnccn5)n4)c3)cc(C(F)(F)F)c2)cn1` [Example 8, 4-methyl-N-[3-(4-methylimidazol-1-yl)-5-trifluoromethyl-phenyl]-3-(4-pyrazin-2-yl-pyrimidin-2-ylamino)-benzamide], the IC50 in the data set on K562 cancer cell is at most 0.01 µg/mL; in the data set on CT-26 cancer cell it was under 0.01 µg/mL; in the data set on A549, 2.23 µg/mL (≈ 4.2 µM); in the data set on Panc-1, 0.498 µg/mL (≈ 0.939 µM); in the data set on A-172 it was under 0.01 µg/mL; in the data set on RPMI-6666, under 0.01 µg/mL. The 50% inhibitory concentration (IC50) in the data set with SNU-C1 was under 0.01 µg/mL; in the data set with SNU-1 (SNU1, SNU-1, Experiment 3), under 0.01 µg/mL; in the data set on SNU-1 (SNU1, SNU-1, Experiment 4), 0.27 µg/mL (≈ 0.509 µM); in the data set with Sarcoma-180 (Mus musculus, Sarcoma-180, Experiment 4, read-out: IC50), under 0.0001 µg/mL; with KB (Homo sapiens, Experiment 4, read-out: IC50), 0.00058 µg/mL (≈ 0.00109 µM); in the data set on SK-OV-03 (SK-OV-03, Experiment 4, read-out: IC50), 2.39 µg/mL (≈ 4.51 µM). The “improved activity compared with Imatinib mesylate” value is listed as 50 times in the data set on K562 cancer cell and 300 times in the data set with CT-26 cancer cell. Also, the “improved activity than Imatinib mesylate” value in the data set with A549 (A549, Experiment 4) is on record as over 3.5 times; in the data set on SNU-1 (SNU-1, Experiment 4), “more than 170 times”; in the data set with Sarcoma-180 (Sarcoma-180), “more than 1×10^4 time”; with KB, “more than 1×10^4 time”; in the data set on SK-OV-03 (SK-OV-03), over 12 times. In addition, the “improved activity in comparison with cisplatin” value in the data set on SNU-1 (SNU-1, Experiment 4) is on record as “more than 8 times”. The LD50 at 14 days in data set [1] and in data set [2] was at least 2000 mg/kg in each case. Besides, the “clinical conditions and autopsy” value with mice (ICR) and in the data set with rat (SD-Rat) was “neither abnormal response nor specific autopsy result was observed” each time. Moreover, the AUC in the data set “in vivo” was found to be 61300 ng·h/mL. The concentration in the data set “in vivo” peaked (Cmax) at 4100 ng/mL. Also, in “in vivo”, the Tmax came out at 12 h.
